Data on 17 molecules can be found in patent publication US12037344B2, “NLRP3 modulators” (INNATE TUMOR IMMUNITY, INC., priority 2018, dated 2024).

A word on the EC50: it is the midpoint of the concentration-response curve.

One test relates to THP-1 cells. Nature of the test: Measurement of IL-1β production, hTRF protocol (second alternative procedure), THP-1 cells. In kind it is cell-based, human. To be noted: Homo sapiens, THP-1, IL-1β production, read-out: NLRP3 hILIB EC50. The essentials:
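Compounds, dilution series starting at a final 10 μM, were incubated 2 hours at 37° C with PMA-differentiated THP-1 cells (50 ng/ml overnight; 50,000 cells/well, 2% FBS RPMI). Released IL-1β quantified in supernatant by hTRF kit with 1:40 antibody dilution, 4° C overnight, 665/615 nm ratio.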

The next test concerns the target T1, TLR7 (Homo sapiens, UniProt Q9NYK1).
T1 construct: human HEK-Blue cells co-expressing a TLR7 or TLR8 gene
T1 sequence (Q9NYK1 27-1049): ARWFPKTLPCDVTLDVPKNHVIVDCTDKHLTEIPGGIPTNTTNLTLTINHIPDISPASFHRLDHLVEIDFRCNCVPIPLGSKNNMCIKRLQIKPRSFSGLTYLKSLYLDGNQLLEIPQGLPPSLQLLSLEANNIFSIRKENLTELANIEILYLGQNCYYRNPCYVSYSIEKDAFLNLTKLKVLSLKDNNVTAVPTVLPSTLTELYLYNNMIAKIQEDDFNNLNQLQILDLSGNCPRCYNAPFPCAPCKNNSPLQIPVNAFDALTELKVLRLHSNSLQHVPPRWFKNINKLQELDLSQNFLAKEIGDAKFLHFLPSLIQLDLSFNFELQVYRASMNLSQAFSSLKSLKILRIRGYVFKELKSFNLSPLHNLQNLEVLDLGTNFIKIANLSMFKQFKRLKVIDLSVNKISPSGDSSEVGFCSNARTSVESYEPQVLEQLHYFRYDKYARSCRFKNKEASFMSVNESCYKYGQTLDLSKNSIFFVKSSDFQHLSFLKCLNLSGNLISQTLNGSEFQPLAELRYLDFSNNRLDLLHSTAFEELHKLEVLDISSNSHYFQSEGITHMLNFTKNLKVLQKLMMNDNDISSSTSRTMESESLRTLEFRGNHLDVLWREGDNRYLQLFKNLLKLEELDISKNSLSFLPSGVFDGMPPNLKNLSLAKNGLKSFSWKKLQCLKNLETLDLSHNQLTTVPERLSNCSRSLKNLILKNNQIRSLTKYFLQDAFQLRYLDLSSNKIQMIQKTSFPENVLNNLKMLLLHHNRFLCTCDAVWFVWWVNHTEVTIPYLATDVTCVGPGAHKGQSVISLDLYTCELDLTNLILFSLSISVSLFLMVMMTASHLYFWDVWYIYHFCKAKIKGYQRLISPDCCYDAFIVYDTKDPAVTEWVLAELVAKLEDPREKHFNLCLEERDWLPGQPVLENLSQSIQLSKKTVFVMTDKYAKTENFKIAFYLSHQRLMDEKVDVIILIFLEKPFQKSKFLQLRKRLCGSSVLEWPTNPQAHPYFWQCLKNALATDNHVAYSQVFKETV
Nature of the test: In vitro human TLR7 binding reporter assay (HEK-Blue, NF-kB/AP1-inducible SEAP). The settings on record: read-out: TLR7 Agonist EC50. It counts as cell-based. The essentials:
(§1)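 HEK-Blue cells expressing human TLR7 or TLR8 with NF-kB/AP1-inducible SEAP reporter, plated 24 h, then compound-treated 18 h at 37° C, 5% CO2. EC50 normalized to 100% Ymax set by 50 μM reference standard.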
Background: Reporter assays use an easily measured gene product as a stand-in for the process of interest.

The next test concerns the target T2, TLR8 (Homo sapiens, UniProt Q9NR97).
T2 construct: human HEK-Blue cells co-expressing a TLR7 or TLR8 gene
T2 sequence (Q9NR97 27-1041): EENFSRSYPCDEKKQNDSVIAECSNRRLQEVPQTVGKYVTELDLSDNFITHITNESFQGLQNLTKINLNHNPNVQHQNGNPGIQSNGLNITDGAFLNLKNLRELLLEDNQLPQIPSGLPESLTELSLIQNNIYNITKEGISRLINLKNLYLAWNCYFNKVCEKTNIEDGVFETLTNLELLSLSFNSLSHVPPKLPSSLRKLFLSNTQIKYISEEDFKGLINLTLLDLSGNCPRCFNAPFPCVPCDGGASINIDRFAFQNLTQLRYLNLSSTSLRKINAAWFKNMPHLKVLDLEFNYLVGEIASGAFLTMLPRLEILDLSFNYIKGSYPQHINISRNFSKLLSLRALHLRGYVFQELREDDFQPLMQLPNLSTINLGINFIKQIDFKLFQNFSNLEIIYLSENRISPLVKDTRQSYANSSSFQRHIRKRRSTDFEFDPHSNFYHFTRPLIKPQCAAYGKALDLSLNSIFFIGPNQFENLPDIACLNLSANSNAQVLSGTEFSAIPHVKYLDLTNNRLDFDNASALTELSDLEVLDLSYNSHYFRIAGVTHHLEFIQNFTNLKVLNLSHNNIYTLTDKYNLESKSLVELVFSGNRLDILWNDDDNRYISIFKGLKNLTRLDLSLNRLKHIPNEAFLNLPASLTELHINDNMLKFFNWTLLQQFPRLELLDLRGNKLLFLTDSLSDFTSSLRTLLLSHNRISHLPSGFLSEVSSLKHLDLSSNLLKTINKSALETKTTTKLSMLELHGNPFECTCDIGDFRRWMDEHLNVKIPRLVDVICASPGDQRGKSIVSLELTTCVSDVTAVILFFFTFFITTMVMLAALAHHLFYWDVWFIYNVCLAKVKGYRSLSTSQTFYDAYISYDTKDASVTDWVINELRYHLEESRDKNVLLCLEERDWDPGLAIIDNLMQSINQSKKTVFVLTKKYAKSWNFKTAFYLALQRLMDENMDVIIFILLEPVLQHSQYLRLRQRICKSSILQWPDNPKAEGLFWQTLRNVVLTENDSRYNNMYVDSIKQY
Put plainly: In vitro human TLR8 binding reporter assay (HEK-Blue, NF-kB/AP1-inducible SEAP). In kind it is cell-based. To be noted: read-out: TLR8 Agonist EC50. The gist of the method: as §1

Counter-ions that a name gives are not always drawn. Like-named read-outs stand apart in the source and are kept apart here.

`CC(C)(Cn1cc2c(N)nc3cc(-c4ccn[nH]4)ccc3c2n1)C(N)=O` [Example 604]: the figures for the EC50 with THP-1 cells (human cells), at TLR7 (activity range) and at TLR8 (activity range) were 0.85 µM, over 100 µM and over 100 µM, respectively.
`Nc1nc2cc(-c3cc[nH]n3)ccc2c2cn(CCNC(=O)COCC(F)(F)F)nc12` [Example 178]: the EC50 with THP-1 cells (human) is 1.44 µM; on TLR7 (activity range class), over 100 µM; at TLR8 (activity range class), over 100 µM.
Regarding `N#CC[C@H](O)Cn1cc2c(N)nc3cc(-c4cc[nH]n4)ccc3c2n1` [Example 380], the EC50 with THP-1 cells (human) was 0.77 µM; on TLR7 (activity range class) it was over 100 µM; at TLR8 (activity range class) it was over 100 µM.
Turning to `CC(Cn1ncc2c(N)nc3cc(-c4cc[nH]n4)ccc3c21)NS(C)(=O)=O` (stereo not drawn) [Example 302], the results for the EC50 with THP-1 cells (human), at TLR7 (activity range class) and on TLR8 (activity range class) were 3.49 µM, over 100 µM and over 100 µM, respectively.
In the case of `Nc1nc2cc(-c3cc[nH]n3)ccc2c2nn(C3CCCC3O)cc12` (single isomer, unassigned) [Example 314], the EC50 with THP-1 cells (human) is 0.49 µM; on TLR7 (activity range class), over 100 µM; on TLR8 (activity range class), over 100 µM.
Take `Nc1nc2cc(-c3cc[nH]n3)ccc2c2cn(CCNC(=O)c3cc(Cl)ccn3)nc12` [Example 61]: the 50% effective concentration (EC50) was 0.12 µM with THP-1 cells (human), 20 to 100 µM on TLR7 (activity range class) and over 100 µM at TLR8 (activity range class).
`CNC(=O)C(C)n1cc2c(N)nc3cc(-c4ccn[nH]4)ccc3c2n1` (stereo not drawn) [Example 560]: the EC50 was 0.36 µM in the test with THP-1 cells (human cells), over 100 µM on TLR7 (activity range) and over 100 µM on TLR8 (activity range).
As to `Nc1nc2cc(-c3cc[nH]n3)ccc2c2[nH]c(CN[C@@H]3CCOC3)cc12` [Example 422], the EC50 was 0.14 µM with THP-1 cells (human cells), over 100 µM on TLR7 (activity range) and over 100 µM at TLR8 (activity range).
Regarding `Nc1nc2cc(-c3cc[nH]n3)ccc2c2nn(C3COCC3O)cc12` (single isomer, unassigned) [Example 324], the EC50 in the test on THP-1 cells (human) is 1.57 µM; on TLR7 (activity range class) it was over 100 µM; on TLR8 (activity range class), over 100 µM.
In the case of `Nc1nc2cc(-c3cc[nH]n3)ccc2c2nn(CC(O)C(F)(F)F)cc12` (stereo not drawn) [Example 245], the EC50 is 0.94 µM in the test with THP-1 cells (human), over 100 µM at TLR7 (activity range class) and over 100 µM on TLR8 (activity range class).
As for `CC(=O)N[C@@H](CO)Cn1cc2c(N)nc3cc(-c4cc[nH]n4)ccc3c2n1` [Example 292], the figures for the EC50 in the test on THP-1 cells (human), on TLR7 (activity range class) and at TLR8 (activity range class) were 0.89 µM, over 100 µM and over 100 µM, respectively.
On to `COC[C@@H](O)Cn1cc2c(N)nc3cc(-c4cc[nH]n4)ccc3c2n1` [Example 373], for which the EC50 in the test with THP-1 cells (human) is 1.25 µM; on TLR7 (activity range class) it was over 100 µM; on TLR8 (activity range class) it was over 100 µM.
`CC(C)(CCO)n1cc2c(N)nc3cc(-c4cc[nH]n4)ccc3c2n1` [Example 410, 3-(4-amino-7-(1H-pyrazol-3-yl)-2H-pyrazolo[4,3-c]quinolin-2-yl)-3-methylbutan-1-ol, TFA]: the EC50 was 0.33 µM with THP-1 cells (human cells), over 100 µM at TLR7 (activity range) and over 100 µM at TLR8 (activity range).
For `COCCn1ncc2c(N)nc3cc(-c4cc[nH]n4)ccc3c21` [Example 208, 1-(2-methoxyethyl)-7-(1H-pyrazol-3-yl)-1H-pyrazolo[4,3-c]quinolin-4-amine], the 50% effective concentration (EC50) with THP-1 cells (human) is 0.49 µM; on TLR7 (activity range class), over 100 µM; on TLR8 (activity range class) it was over 100 µM.
Take `CC1(O)CCCC1n1cc2c(N)nc3cc(-c4cc[nH]n4)ccc3c2n1` (stereo not drawn) [Example 343]: the EC50 is 0.61 µM with THP-1 cells (human), over 100 µM on TLR7 (activity range class) and over 100 µM at TLR8 (activity range class).
Take `CCNCCn1cc2c(N)nc3cc(-c4ccn[nH]4)ccc3c2n1` [Example 279]: the EC50 in the test with THP-1 cells (human) is 1.13 µM; at TLR7 (activity range class), over 100 µM; at TLR8 (activity range class) it was over 100 µM.
For `CC(C)(Cn1cc2c(N)nc3cc(-c4ccn[nH]4)ccc3c2n1)C(=O)NCCO` [Example 594], the concentration for a half-maximal effect (EC50) in the test with THP-1 cells (human cells) was 7.94 µM; on TLR7 (activity range), over 100 µM; on TLR8 (activity range), over 100 µM.
